According to patent publication US7579469B2, “Glucocorticoid mimetics, methods of making them, pharmaceutical compositions, and uses thereof” (Boehringer Ingelheim Pharmaceuticals, Inc., priority 2003, dated 2009):

Biological target: T1, human glucocorticoid receptor (GR) complex (Homo sapiens, UniProt P04150)
T1 construct: made in house; host or cells: insect expression system (baculovirus lysate)
T1 sequence (P04150 1-777): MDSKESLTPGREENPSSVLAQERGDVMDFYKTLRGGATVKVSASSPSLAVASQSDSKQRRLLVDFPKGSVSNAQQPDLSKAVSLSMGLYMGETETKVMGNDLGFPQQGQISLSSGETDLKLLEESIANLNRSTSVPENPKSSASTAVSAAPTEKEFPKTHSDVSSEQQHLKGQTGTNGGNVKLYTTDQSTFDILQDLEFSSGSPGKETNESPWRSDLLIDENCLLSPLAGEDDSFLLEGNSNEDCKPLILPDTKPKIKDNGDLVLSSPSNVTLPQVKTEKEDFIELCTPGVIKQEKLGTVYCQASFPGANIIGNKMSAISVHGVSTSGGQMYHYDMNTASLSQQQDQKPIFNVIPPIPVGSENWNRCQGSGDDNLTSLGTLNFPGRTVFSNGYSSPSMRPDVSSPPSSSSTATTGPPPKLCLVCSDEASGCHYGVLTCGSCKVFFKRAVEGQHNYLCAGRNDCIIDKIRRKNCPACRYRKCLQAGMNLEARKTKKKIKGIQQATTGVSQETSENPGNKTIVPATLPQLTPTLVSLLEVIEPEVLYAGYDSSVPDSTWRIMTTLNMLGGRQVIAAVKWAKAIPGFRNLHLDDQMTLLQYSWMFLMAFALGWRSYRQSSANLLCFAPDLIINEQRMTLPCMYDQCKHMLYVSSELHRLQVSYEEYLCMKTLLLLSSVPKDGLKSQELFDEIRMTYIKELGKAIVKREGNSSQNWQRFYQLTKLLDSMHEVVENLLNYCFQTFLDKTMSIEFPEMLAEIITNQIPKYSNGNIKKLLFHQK
Assay: Glucocorticoid receptor competitive binding assay (fluorescence polarization)
Conditions: competition with TAMRA-labeled dexamethasone
Procedure: Compounds of the invention were evaluated for binding to the steroid receptor by a fluorescence polarization competitive binding assay.
A. Glucocorticoid Receptor Competitive Binding Assay
Step 1. Characterization of the Fluorescent Probe
The wavelengths for maximum excitation and emission of the fluorescent probe should first be measured. An example of such a probe is rhodamine (TAMRA)-labeled dexamethasone.
The affinity of the probe for the steroid receptor was then determined in a titration experiment. The fluorescence polarization value of the probe in assay buffer was measured on an SLM-8100 fluorometer using the excitation and emission maximum values described above. Aliquots of expression vector lysate were added and fluorescence polarization was measured after each addition until no further change in polarization value was observed. Non-linear least squares regression analysis was used to calculate the dissociation constant of the probe from the polarization values obtained for lysate binding to the probe.
Step 2. Screening for Inhibitors of Probe Binding
This assay uses fluorescence polarization (FP) to quantitate the ability of test compounds to compete with tetramethyl rhodamine (TAMRA)-labeled dexamethasone for binding to a human glucocorticoid receptor (GR) complex prepared from an insect expression system. The assay buffer was: 10 mM TES, 50 mM KCl, 20 mM Na2MoO4.2H20, 1.5 mM EDTA, 0.04% w/v CHAPS, 10% v/v glycerol, 1 mM dithiothreitol, pH 7.4. Test compounds were dissolved to 1 mM in neat DMSO and then further diluted to 10× assay concentration in assay buffer supplemented with 10% v/v DMSO. Test compounds were serially diluted at 10× assay concentrations in 10% DMSO-containing buffer in 96-well polypropylene plates. Binding reaction mixtures were prepared in 96-well black Dynex microtiter plates by sequential addition of the following assay components to each well: 15 μL of 10× test compound solution, 85 μL of GR-containing baculovirus lysate diluted 1:170 in assay buffer, and 50 μL of 15 nM TAMRA-labeled dexamethasone. Positive controls were reaction mixtures containing no test compound; negative controls (blanks) were reaction mixtures containing 0.7 μM to 2 μM dexamethasone. […] IC50 values were determined by iterative non-linear curve fitting of the FP signal data to a 4-parameter logistic equation.

activity in the GR binding assay	SMILES
potent activity	COc1ccc(F)cc1C(C)(C)CC(O)(Cn1cc(C(F)(F)F)cc([N+](=O)[O-])c1=O)C(F)(F)F (stereo not drawn) [1-[4-(5-Fluoro-2-methoxyphenyl)-2-hydroxy-4-methyl-2-trifluoromethylpentyl]-3-nitro-5-trifluoromethyl-1H-pyridin-2-one]
potent activity	Cc1noc(C)c1-c1cccc(C(C)(C)CC(O)(Cn2ccc(=O)c3ccccc32)C(F)(F)F)c1 (stereo not drawn) [1-{4-[3-(3,5-Dimethylisoxazol-4-yl)phenyl]-2-hydroxy-4-methyl-2-trifluoromethylpentyl}-1H-quinolin-4-one]
potent activity	CC(C)(CC(O)(Cn1ccc(=O)c2ccccc21)C(F)(F)F)c1cc(F)ccc1OCc1ccccc1 (stereo not drawn)
potent activity	COc1ccc(F)cc1C(C)(C)CC(O)(CN1CCNc2ccccc21)C(F)(F)F (stereo not drawn) [2-(3,4-Dihydro-2H-quinoxalin-1-ylmethyl)-1,1,1-trifluoro-4-(5-fluoro-2-methoxyphenyl)-4-methylpentan-2-ol]
potent activity	COc1ccc(-c2c(C)noc2C)cc1C(C)(C)CC(O)(Cn1ccc(=O)c2ccccc21)C(F)(F)F (stereo not drawn) [1-{4-[5-(3,5-Dimethylisoxazol-4-yl)-2-methoxyphenyl]-2-hydroxy-4-methyl-2-trifluoromethylpentyl}-1H-quinolin-4-one]
potent activity	CC(C)(CC(O)(Cn1ccc(=O)c2ccccc21)C(F)(F)F)c1cc(-c2cccnc2)ccc1O (stereo not drawn) [1-[2-Hydroxy-4-(2-hydroxy-5-pyridin-3-ylphenyl)-4-methyl-2-trifluoromethylpentyl]-1H-quinolin-4-one]
potent activity	CC(C)(CC(O)(Cn1ccc(=O)c2ccccc21)C(F)(F)F)c1cccc(O)c1 (stereo not drawn) [1-[2-Hydroxy-4-(3-hydroxyphenyl)-4-methyl-2-trifluoromethylpentyl]-1H-quinolin-4-one]
potent activity	COc1ccc(F)cc1C(C)(C)CC(O)(Cn1ccc(=O)c2cc(F)ccc21)C(F)(F)F (stereo not drawn) [6-Fluoro-1-[4-(5-fluoro-2-methoxyphenyl)-2-hydroxy-4-methyl-2-trifluoromethylpentyl]-1H-quinolin-4-one]
potent activity	CC(C)(CC(O)(Cn1ccc(=O)c2ccccc21)C(F)(F)F)c1ccc(F)c(C2OCCCO2)c1 (stereo not drawn)
potent activity	CON=C(C)c1cccc(C(C)(C)CC(O)(Cn2ccc(=O)c3ccccc32)C(F)(F)F)c1 (stereo not drawn) [1-(2-Hydroxy-4-{3-[1-(methoxyimino)ethyl]phenyl}4-methyl-2-trifluoromethylpentyl)-1H-quinolin-4-one]
potent activity	COc1ccc(-c2cccnc2)cc1C(C)(C)CC(O)(Cn1ccc(=O)c2ccccc21)C(F)(F)F (stereo not drawn)
potent activity	CC(C)(CC(O)(Cn1ccc(=O)c2ccccc21)C(F)(F)F)c1cc(Br)cc2c1OCO2 (stereo not drawn) [1-[4-(6-Bromobenzo[1,3]dioxol-4-yl)-2-hydroxy-4-methyl-2-trifluoromethylpentyl]-1H-quinolin-4-one]
potent activity	COc1c(C)cc(C)cc1C(C)(C)CC(O)(Cn1ccc(=O)c2ccccc21)C(F)(F)F (stereo not drawn)
potent activity	COc1ccc(F)cc1C(C)(C)CC(O)(CN1CCSc2ccccc21)C(F)(F)F (stereo not drawn) [2-(2,3-Dihydrobenzo[1,4]thiazin-4-ylmethyl)-1,1,1-trifluoro-4-(5-fluoro-2-methoxyphenyl)-4-methylpentan-2-ol]
potent activity	COc1ccc(CO)cc1C(C)(C)CC(O)(Cn1ccc(=O)c2ccccc21)C(F)(F)F (stereo not drawn) [1-[2-Hydroxy-4-(5-hydroxymethyl-2-methoxyphenyl)-4-methyl-2-trifluoromethylpentyl]-1H-quinolin-4-one]
potent activity	COc1ccc(F)cc1C(C)(C)CC(O)(CN1CCS(=O)(=O)c2ccccc21)C(F)(F)F (stereo not drawn) [2-(1,1-Dioxo-2,3-dihydro-1H-1λ^6-benzo[1,4]thiazin-4-ylmethyl)-1,1,1-trifluoro-4-(5-fluoro-2-methoxyphenyl)-4-methylpentan-2-ol]
potent activity	COc1ccc(F)cc1C(C)(C)CC(O)(Cn1ccc(=O)c2cccc(F)c21)C(F)(F)F (stereo not drawn) [8-Fluoro-1-[4-(5-fluoro-2-methoxyphenyl)-2-hydroxy-4-methyl-2-trifluoromethylpentyl]-1H-quinolin-4-one]
potent activity	COc1ccc(F)cc1C(C)(C)CC(O)(CN1CC[S+]([O-])c2ccccc21)C(F)(F)F (stereo not drawn) [1,1,1-Trifluoro-4-(5-fluoro-2-methoxyphenyl)-4-methyl-2-(1-oxo-2,3-dihydro-1H-1λ^4-benzo[1,4]thiazin-4-ylmethyl)pentan-2-ol]
potent activity	COc1ccc(-c2ccccc2)cc1C(C)(C)CC(O)(Cn1ccc(=O)c2ccccc21)C(F)(F)F (stereo not drawn) [1-[2-Hydroxy-4-(4-methoxybiphenyl-3-yl)-4-methyl-2-trifluoromethylpentyl]-1H-quinolin-4-one]
potent activity	Cc1cc2c(c(C(C)(C)CC(O)(Cn3ccc(=O)c4ccccc43)C(F)(F)F)c1)OCC2 (stereo not drawn) [1-[4-(5-Methyl-2,3-dihydrobenzofuran-7-yl)-2-hydroxy-4-methyl-2-trifluoromethylpentyl]-1H-quinolin-4-one]
potent activity	CC(=O)c1cccc(C(C)(C)CC(O)(Cn2ccc(=O)c3ccccc32)C(F)(F)F)c1 (stereo not drawn) [1-[4-(3-Acetylphenyl)-2-hydroxy-4-methyl-2-trifluoromethylpentyl]-1H-quinolin-4-one]
potent activity	CC(C)(CC(O)(Cn1ccc(=O)c2ccccc21)C(F)(F)F)c1cc(CN2CCOCC2)ccc1O (stereo not drawn) [1-[2-Hydroxy-4-(2-hydroxy-5-morpholin-4-ylmethylphenyl)-4-methyl-2-trifluoromethylpentyl]-1H-quinolin-4-one]
potent activity	Cc1cn(CC(O)(CC(C)(C)c2cc(F)ccc2O)C(F)(F)F)c(CO)c(C)c1=O (stereo not drawn) [1-[4-(5-Fluoro-2-hydroxyphenyl)-2-hydroxy-4-methyl-2-trifluoromethylpentyl]-2-hydroxymethyl-3,5-dimethyl-1H-pyridin-4-one]
potent activity	COc1ccc(F)cc1C(C)(C)CC(O)(Cn1ccc(=O)c2ccc(F)cc21)C(F)(F)F (stereo not drawn) [7-Fluoro-1-[4-(5-fluoro-2-methoxyphenyl)-2-hydroxy-4-methyl-2-trifluoromethylpentyl]-1H-quinolin-4-one]
potent activity	CC(C)(CC(O)(CN1CCN(C(=O)c2ccco2)CC1)C(F)(F)F)c1cc(F)ccc1O (stereo not drawn) [{4-[4-(5-Fluoro-2-hydroxyphenyl)-2-hydroxy-4-methyl-2-trifluoromethylpentyl]piperazin-1-yl}furan-2-ylmethanone]
potent activity	CC(C)(CC(O)(Cn1ccc(=O)c2ccccc21)C(F)(F)F)c1cc(F)ccc1OC(F)F (stereo not drawn)
potent activity	CC(C)(CC(O)(Cn1ccc(=O)c2ccccc21)C(F)(F)F)c1ccccc1 (stereo not drawn) [1-[4-Phenyl-2-hydroxy-4-methyl-2-trifluoromethylpentyl]-1H-quinolin-4-one]
